Activity calls are given as the source filed them. The calls are words filed in the database; no cut-off is given here.
Columns and labels:
Influenza A virus [1] = test: Inhibition of Influenza A virus AM2 expressed in xenopus laevis frog oocytes assessed as inhibition of channel current at 100 uM after 2 mins by two-electrode voltage clamp assay relative to control; type: cell-based
Influenza A virus [2] = type: functional, A/California/07/2009(H1N1), MDCK
[3] = Cytotoxicity against MDCK cells after 48 hrs by neutral red uptake assay; type: cell-based, Canis lupus familiaris; settings: dog
[4] = Half life in mouse liver microsomes at 1 uM in presence of NADPH generating system by LC-MS/MS analysis; type: ADME, microsome
[5] = Intrinsic clearance in mouse liver microsomes at 1 uM in presence of NADPH generating system by LC-MS/MS analysis; type: ADME, microsome; settings: read-out: CLH
Influenza A virus [6] = test: microbe, parasite or virus in culture; settings: A/California/07/2009(H1N1), MDCK
Description: Antiviral activity against Influenza A virus (A/California/07/2009(H1N1)) infected in MDCK cells expressing ST6Gal-1 assessed as reduction in plaque formation pretreated with virus for 30 mins followed by viral infection measured after 2 to 3 days by naphthalene black dye based assay

[7] = Half life in mouse liver microsomes at 0.5 uM; type: ADME, microsome; settings: for half-life at 0.5 µM: liver microsomes
[8] = Intrinsic clearance in mouse liver microsomes at 0.5 uM; type: ADME, microsome; settings: read-out: CLH
[9] = Half life in human liver microsomes at 1 uM in presence of NADPH generating system by LC-MS/MS analysis; type: ADME, microsome
[10] = Permeability of the compound by PAMPA; type: ADME; settings: read-out: permeability
Influenza A virus [11] = type: functional, organism-based; settings: A/California/07/2009(H1N1), MDCK, 30 nM
Influenza A virus [12] = type: functional, organism-based; settings: A/California/07/2009(H1N1), MDCK, 30 nM; remark: listed apart in the source
Influenza A virus [13] = type: functional, organism-based; settings: A/California/07/2009(H1N1), A549, 30 nM
Influenza A virus [14] = type: functional, organism-based; settings: A/California/07/2009(H1N1), MDCK, 10 uM
Influenza A virus [15] = type: functional, A/California/07/2009(H1N1), A549
Influenza A virus [16] = type: functional, A/California/07/2009(H1N1), A549; remark: listed apart in the source
Influenza A virus [17] = type: functional, A/California/07/2009(H1N1), A549; remark: listed apart in the source

Compound	inhibition (Influenza A virus [1]) [%]	Activity (Influenza A virus [2]) [%]	CC50 at 48 h [3] [µM]	half-life at 1 µM [4] [min]	CLint scaled at 1 µM [5] [mL/min/kg]	EC50 (Influenza A virus [6]) [µM]	also measured
c1csc(-c2ccc(CNC34CC5CC(CC(C5)C3)C4)s2)c1	17.9	58.5	19.5	2.8	1940	12.2	–
COC(=O)c1ccc(-c2ccc(CNC34CC5CC(CC(O)(C5)C3)C4)s2)cc1	0	52	–	–	–	–	–
COc1ccc(-c2ccc(CNC34CC5CC(CC(O)(C5)C3)C4)s2)cc1OC	0	67.5	–	–	–	–	–
OC12CC3CC(C1)CC(NCc1cc(Br)cs1)(C3)C2	6.5	31.4	381	101	54.5	3.1	–
OC12CC3CC(C1)CC(NCc1cnc(N4CCCCC4)nc1)(C3)C2	–	–	–	–	–	–	half-life at 0.5 µM [7]: 19.4 min; CLint scaled at 0.5 µM [8]: 283 mL/min/kg
OC12CC3CC(C1)CC(NCc1ccc(Br)s1)(C3)C2	11.4	3.9	238	> 145	< 38	1.1	half-life at 1 µM [9]: > 145 min; Papp [10]: 25.3 ×10⁻⁶ cm/s
OC12CC3CC(C1)CC(NCc1csc(Br)c1)(C3)C2	1.9	31.3	364	–	–	5.1	–
OC12CC3CC(C1)CC(NCc1ccc(-c4ccccc4Cl)s1)(C3)C2	0	20.4	65.2	–	–	2.5	–
CCC(CC)O[C@@H]1C=C(C(=O)O)C[C@H](N)[C@H]1NC(C)=O [OSELTAMIVIR CARBOXYLATE]	–	–	> 20	–	–	0.0024	Activity (Influenza A virus [11]): Active; Activity (Influenza A virus [12]): inactive; Activity (Influenza A virus [13]): inactive
c1csc(-c2cc(CNC34CC5CC(CC(C5)C3)C4)no2)c1	–	0	–	–	–	–	–
Brc1ccc(CNC23CCC4CC(CC(C4)C2)C3)s1	86.5	0	43.1	9.1	604	0.6	–
OC12CC3CC(C1)CC(NCc1cnc(Br)s1)(C3)C2	2.7	102.1	–	–	–	–	–
OC12CC3CC(C1)CC(NCc1ccc(N4CCCCCC4)cn1)(C3)C2	–	–	–	–	–	–	half-life at 0.5 µM [7]: 22.1 min; CLint scaled at 0.5 µM [8]: 248 mL/min/kg
Brc1ccc(CNC23CC4CC(CC(C4)C2)C3)[se]1	56.1	0	82.1	32.1	171	2.2	–
OC12CC3CC(C1)CC(NCc1nc(Br)cs1)(C3)C2	3.9	108	–	–	–	–	–
c1nc(N2CCCCCC2)ncc1CNC12CC3CC(CC(C3)C1)C2	–	–	–	–	–	–	half-life at 0.5 µM [7]: 0.8 min; CLint scaled at 0.5 µM [8]: 6760 mL/min/kg
C[Si](C)(C)c1ccc(CNC23CC4CC(CC(O)(C4)C2)C3)cc1	–	–	–	–	–	–	t1/2 ([7]; microsomes, 0.5 µM): 4.4 min
COc1ccc(-c2ccc(CNC34CC5CC(CC(O)(C5)C3)C4)s2)cn1	0	40.5	–	–	–	–	–
OC12CC3CC(C1)CC(NCc1ccc(-c4ccc(F)cc4F)s1)(C3)C2	0	44.1	–	–	–	–	–
COc1ncc(-c2ccc(CNC34CC5CC(CC(O)(C5)C3)C4)s2)cn1	0	74	–	–	–	–	–
CSc1ccccc1-c1ccc(CNC23CC4CC(CC(O)(C4)C2)C3)s1	0	47.7	–	–	–	–	–
OC12CC3CC(C1)CC(NCc1ccc(I)s1)(C3)C2	3.2	2.5	317	> 145	< 38	0.9	half-life at 1 µM [9]: > 145 min; Papp [10]: 20.4 ×10⁻⁶ cm/s; Activity (Influenza A virus [14]): Active; Activity (Influenza A virus [15]): 1.8 log10PFU/ml; Activity (Influenza A virus [16]): 2.1 log10PFU/ml; Activity (Influenza A virus [17]): 2.9 log10PFU/ml
Brc1ccc(CNC23CC4CC(CC(C4)C2)C3)s1	77.2	3.2	123	> 145	< 38	2.9	half-life at 0.5 µM [7]: > 145 min; CLint scaled at 0.5 µM [8]: < 38 mL/min/kg
Ic1ccc(CNC23CC4CC(CC(C4)C2)C3)s1	91	1.8	70.2	24.5	224	1	–
OC12CC3CC(C1)CC(NCc1ccc(-c4ccccc4)s1)(C3)C2	0.3	27.9	80.5	–	–	2.1	–
